Source: patent publication US20220225616A1, “Antifungal Wallboards” (LANXESS Deutschland GmbH, priority 2019, published 2022)
“Also recorded” adds a separate entry of the source.

Tests used:
[1] = tested on: Fungi Mix: standard ASTM G 21-09 species extended by Fusarium solani and Aspergillus hiratsukae; assay: Gypsum board hand sheet efficacy testing (core protection), ASTM G 21-09; conditions: for Fungal growth rating, Fungi Mix: in gypsum core, 4 weeks at 28-30° C.; for Overall efficacy in gypsum board test, in words: tested concentration range 25-300 ppm, interpretation of tables 2 and 3
From the text: (§1) For examination of the antifungal performance of the TBZ/BBIT combinations testing directly in gypsum boards provides realistic and practically relevant data for evaluation. […] For this purpose, a typical slurry recipe as given below for board production is used. Gypsum Board recipe:
(§2) The slurry is formed by mixing the dry components and the wet components together. The slurry is then mixed to achieve a homogeneous consistency. The fungicides are incorporated during preparation of the gypsum slurry by adding and mixing the fungicidal mixtures. For sandwiching the gypsum core, untreated cardboard (without fungicide) with a grammage of appr. 180 g/m^2 was used and after assembly of the plate the hand sheets are dried. The following antifungal compounds and respective formulations were used: • Thiabendazole • Butylbenzthiazole
(§3) For efficacy testing a test method of ASTM G 21 of 2009 was applied. As only change additional to the fungi mix as required by ASTM G 21-09, Fusarium solani and Aspergillus hiratsukae were included as further components of the mixed inoculum. According to this method, the manufactured gypsum boards as described above and after having been cut to an adequate size are placed on an agarplate and superficially are spoiled with fungal spores for a determined period of time of at the most 4 weeks. The respective total amount of actives in ppm based in gypsum/plaster (CaSO4(0.5 H2O) can be seen in the table.
(§4) Spore suspensions are produced for each fungi (spore concentrations of approximately 10^6/ml). Organisms which are included in ASTM G 21 comprise Aspergillus niger (ATCC 9642), Aureobasidium pullulans (ATCC 15233) Chaetomium globosum (ATCC 6205), Gliocladium virens (ATCC 6459) and Penicillium pinophilium (ATCC 11797) (as pure culture but also as mixed inoculum), however any other fungi species known to be able to grow in gypsum boards may be used in addition or instead. Mineral agar (according to ASTM G21 of 2009) was used as growth media in the agar plates. Before inoculation the gypsum board hand sheets are cut into pieces of appr. 5×5 cm.
(§5) For every concentration level, 3 test pieces are used in the test. Each sample is placed in a separate petri dish and then inoculated with the fungi. The samples are then incubated at 28-30° C. for 28 days. Pre-reading of the samples may be performed at approximately 10 days after inoculation. The activity of the treatments may be assessed visually, using a rating system of 0-4 for growth inhibition of fungal growth.
(§6) The reported results are recorded after 4 weeks testing at 28-30° C. according to the requirements of test method ASTM G 21 can be seen from Table 2: […]

Stachybotris chartarum = assay: as above; conditions: in gypsum core, 4 weeks at 28-30° C.
From the text: as §1, §2, §3, §4, §5, §6

[2] = 25 ppm total actives based on gypsum/plaster
[3] = 50 ppm total actives based on gypsum/plaster
[4] = 100 ppm total actives based on gypsum/plaster
[5] = 200 ppm total actives based on gypsum/plaster
[6] = 300 ppm total actives based on gypsum/plaster

Compound | Fungal growth rating, Fungi Mix [1, 2] | Fungal growth rating, Fungi Mix [1, 3] | Fungal growth rating, Fungi Mix [1, 4] | Fungal growth rating, Fungi Mix [1, 5] | Fungal growth rating, Fungi Mix [1, 6] | Overall efficacy in gypsum board test, in words [1] | Fungal growth rating, Stachybotris (Stachybotris chartarum; [2]) | Fungal growth rating, Stachybotris (Stachybotris chartarum; [3]) | Fungal growth rating, Stachybotris (Stachybotris chartarum; [4]) | Fungal growth rating, Stachybotris (Stachybotris chartarum; [5]) | Fungal growth rating, Stachybotris (Stachybotris chartarum; [6])
c1ccc2[nH]c(-c3cscn3)nc2c1 [TBZ, thiabendazole] | 4 (Heavy growth (60% to complete coverage)) | 4 (Heavy growth (60% to complete coverage)) | 4 (Heavy growth (60% to complete coverage)) | 4 (Heavy growth (60% to complete coverage)) | 3 (Medium growth (30 to 60%)) | not good enough for control of fungi growth; also recorded: neither TBZ nor AZO alone are good enough to pass the ASTM G 21 test | 4 (Heavy growth (60% to complete coverage)) | 4 (Heavy growth (60% to complete coverage)) | 4 (Heavy growth (60% to complete coverage)) | 4 (Heavy growth (60% to complete coverage)) | 3 (Medium growth (30 to 60%))
CO/C=C(/C(=O)OC)c1ccccc1Oc1cc(Oc2ccccc2C#N)ncn1 [AZO, Azoxystrobin] | 4 (Heavy growth (60% to complete coverage)) | 4 (Heavy growth (60% to complete coverage)) | 4 (Heavy growth (60% to complete coverage)) | 4 (Heavy growth (60% to complete coverage)) | 4 (Heavy growth (60% to complete coverage)) | neither TBZ nor AZO alone are good enough to pass the ASTM G 21 test | 4 (Heavy growth (60% to complete coverage)) | 4 (Heavy growth (60% to complete coverage)) | 4 (Heavy growth (60% to complete coverage)) | 4 (Heavy growth (60% to complete coverage)) | 4 (Heavy growth (60% to complete coverage))
CCCCn1sc2ccccc2c1=O [BBIT, 2-butyl-1,2-benzisothiazolin-3-one] | 4 (Heavy growth (60% to complete coverage)) | 4 (Heavy growth (60% to complete coverage)) | 4 (Heavy growth (60% to complete coverage)) | 2 (Light growth (10 to 30%)) | 1 (Traces of growth (less than 10%)) | better than TBZ, however still not fully satisfactory | 4 (Heavy growth (60% to complete coverage)) | 4 (Heavy growth (60% to complete coverage)) | 4 (Heavy growth (60% to complete coverage)) | 2 (Light growth (10 to 30%)) | 1 (Traces of growth (less than 10%))
